Test results published in publication PMC7594083, “Preclinical Evaluation of the GRPR-Targeting Antagonist RM26 Conjugated to the Albumin-Binding Domain for GRPR-Targeting Therapy of Cancer” (Pharmaceutics, 2020).
Read-outs that look alike come from different tables or passages of the source.

Key:
[1] = Circular dichroism, secondary structure/helicity; assay type: physicochemical
Procedure: The secondary structures of ABD035, DOTA-ABD-Cl and DOTA-ABD-RM26 were determined by circular dichroism spectroscopy (Chirascan, Applied Photophysics, Leatherhead, UK). All CD spectra were obtained at 20 °C using a protein concentration of 0.2 mg/mL in 20 mM potassium phosphate buffer with 100 mM KCl pH 7.4. To estimate the percentage of helicity in each construct, the measured ellipticity (θobs) was first converted to the mean residue ellipticity (MRE) using the following formula MRE = θobs/10 × l × C × n, where l is the pathlength in cm, C is the peptide concentration in the molar, and n is the number of residues in each construct. From the mean residue ellipticity at 222 nm, MRE222, the fraction helix, FH, was calculated using the following formula, FH = (MRE222 − [θ]C)/([θ]H − [θ]C). [θ]H and [θ]C are given by [θ]H = 40,000 × (1 − (2.5/n) + 100 × T, and [θ]C = 640 − 45 × T. T is given in °C, here 20, and n is the number of residues in each construct (Scholtz 1991).

[2] = Thermal melting by circular dichroism; assay type: physicochemical; settings: CD, 0.2 mg/mL in 20 mM potassium phosphate, 100 mM KCl, pH 7.4; estimated (only roughly for DOTA-ABD-RM26)
[3] = In vivo targeting specificity in mice bearing PC-3 xenografts; settings: female, BALB/c nu/nu, mouse, iv, total radioactivity, 40 pmol i.v., 72 h pi, 4 mice, SD, read-out: tumor activity uptake, non-blocked
Procedure: The activity content was measured using a 2840 automated gamma counter Wizard^2TM (PerkinElmer, Waltham, MA, USA). Instant thin-layer chromatography (ITLC) results were analyzed using Cyclone® Plus (PerkinElmer). Statistical analyses were performed by unpaired, two-tailed t-tests using GraphPad Prism 8 for Windows (GraphPad Software, San Diego, CA, USA); p values below 0.05 were considered significant.
BALB/c nu/nu female mice were implanted subcutaneously with PC-3 cells in PBS (6.5 × 10^6 cells/mouse) on the hind leg. Tumor size was 0.4 ± 0.2 g at the time of the experiment (2−3 weeks following implantations). A group of four mice was used per data point.
The mice were euthanized at 72 h post injection (pi).

PC-3 xenografts = assay: Biodistribution in mice bearing PC-3 xenografts; assay type: in vivo, mice (BALB/c nu/nu female); settings: mouse, in vivo
Procedure: (§1) Instant thin-layer chromatography (ITLC) results were analyzed using Cyclone® Plus (PerkinElmer). […] BALB/c nu/nu female mice were implanted subcutaneously with PC-3 cells in PBS (6.5 × 10^6 cells/mouse) on the hind leg. […] A group of four mice was used per data point. […] After euthanization, the organs of interest were collected and weighed, and the radioactivity content was measured on a gamma counter.

[4] = Biodistribution in mice bearing PC-3 xenografts; assay type: in vivo, mice (BALB/c nu/nu female); settings: female, BALB/c nu/nu, mouse, in vivo, iv, 40 pmol, total radioactivity
Procedure: as §1

GRPR [5] = target: T1, GRPR (Homo sapiens, UniProt P30550); assay: Competitive binding (IC50) assay on PC-3 cells; set-up: host or cells: PC-3 prostate carcinoma cells; settings: vs 1 nM [^111In]In-NOTA-PEG4-RM26, PC-3 cells, 0-10 µM, 4 °C, 5 h, n = 3, SD
Procedure: Prostate carcinoma cell line PC-3 (GRPR positive) was purchased from ATCC, Manassas, VA, USA. […] PC-3 cells (5 × 10^5 cells/well) were plated on 12-well plates one day before the competitive binding assays. […] On the day of the experiment, the cells were washed, and 1 nM of [^111In]In-NOTA-PEG4-RM26 was added to each well along with a series of concentrations ranging between 0-10 μM of the competing conjugate. The dishes were incubated at 4 °C for 5 h. The cells were then washed and treated with trypsin-EDTA until cell detachment. The cells were collected, and the radioactivity content was measured using a gamma counter.

GRPR [6] = target: T1, GRPR; settings: in vivo; cited from earlier work
GRPR [7] = target: T1, GRPR; settings: cited from earlier work
[8] = cited from earlier work
From the text: However, as a consequence of the low amplitude for the melting curve of DOTA-ABD-RM26, the melting temperature can only be roughly estimated for this conjugate.

T1 sequence (P30550 whole entry): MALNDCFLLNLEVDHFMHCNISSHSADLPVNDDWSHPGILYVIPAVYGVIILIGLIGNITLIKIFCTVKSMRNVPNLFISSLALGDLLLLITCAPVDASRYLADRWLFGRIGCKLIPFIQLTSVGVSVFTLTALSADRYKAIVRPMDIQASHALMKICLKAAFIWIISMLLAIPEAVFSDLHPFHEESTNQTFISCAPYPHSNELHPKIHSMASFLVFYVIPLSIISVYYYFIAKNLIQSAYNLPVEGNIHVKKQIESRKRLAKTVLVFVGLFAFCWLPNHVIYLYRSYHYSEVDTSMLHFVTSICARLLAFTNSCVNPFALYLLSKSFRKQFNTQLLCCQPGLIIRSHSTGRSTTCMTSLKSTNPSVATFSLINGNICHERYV

CC[C@H](C)[C@H](NC(=O)[C@H](Cc1c[nH]cn1)NC(=O)[C@H](CC(C)C)NC(=O)[C@H](CCCCN)NC(=O)[C@H](CC(C)C)NC(=O)[C@H](C)NC(=O)[C@H](CCC(=O)O)NC(=O)[C@@H](NC(=O)CNC(=O)[C@H](CCC(=O)O)NC(=O)[C@@H](NC(=O)[C@@H](NC(=O)[C@H](CCCCN)NC(=O)[C@H](C)NC(=O)[C@H](CCCCN)NC(=O)[C@H](CC(N)=O)NC(=O)[C@@H](NC(=O)[C@H](CC(C)C)NC(=O)[C@H](CCCNC(=N)N)NC(=O)[C@H](CCCCN)NC(=O)[C@H](Cc1ccc(O)cc1)NC(=O)[C@H](Cc1ccccc1)NC(=O)[C@H](CC(=O)O)NC(=O)[C@H](CO)NC(=O)[C@@H](NC(=O)CNC(=O)[C@H](Cc1ccc(O)cc1)NC(=O)[C@H](CCCCNC(=O)CCl)NC(=O)[C@H](CC(=O)O)NC(=O)[C@H](CC(C)C)NC(=O)[C@H](CCC(=O)O)NC(=O)[C@H](CCCNC(=N)N)NC(=O)[C@H](CC(N)=O)NC(=O)[C@H](C)NC(=O)[C@H](CC(C)C)NC(=O)[C@@H](NC(=O)[C@H](CCCCN)NC(=O)[C@H](C)NC(=O)[C@H](CCC(=O)O)NC(=O)[C@H](C)NC(=O)[C@H](CC(C)C)NC(=O)CN1CCN(CC(=O)O)CCN(CC(=O)O)CCN(CC(=O)O)CC1)C(C)C)C(C)C)[C@@H](C)CC)[C@@H](C)O)C(C)C)C(C)C)C(=O)N[C@@H](CC(C)C)C(=O)N[C@@H](C)C(=O)N[C@@H](C)C(=O)N[C@@H](CC(C)C)C(=O)N1CCC[C@H]1C(N)=O [DOTA-ABD-Cl]
CD spectrum pattern ([1]; 20 °C, 0.2 mg/mL, 20 mM potassium phosphate with 100 mM KCl pH 7.4): characteristic alpha-helical pattern | helicity ([1]; from MRE222, 20 °C, 0.2 mg/mL, 20 mM potassium phosphate with 100 mM KCl pH 7.4, helix-coil theory): approximately 60% | residues in helical conformation ([1]; from MRE222, 20 °C, pH 7.4, out of 49 (ABD035), 46 (DOTA-ABD-Cl), 56 (ABD-RM26) residues): 27 residues | melting temperature (Tm) [2]: 50 °C

CC[C@H](C)[C@H](NC(=O)[C@H](Cc1c[nH]cn1)NC(=O)[C@H](CC(C)C)NC(=O)[C@H](CCCCN)NC(=O)[C@H](CC(C)C)NC(=O)[C@H](C)NC(=O)[C@H](CCC(=O)O)NC(=O)[C@@H](NC(=O)CNC(=O)[C@H](CCC(=O)O)NC(=O)[C@@H](NC(=O)[C@@H](NC(=O)[C@H](CCCCN)NC(=O)[C@H](C)NC(=O)[C@H](CCCCN)NC(=O)[C@H](CC(N)=O)NC(=O)[C@@H](NC(=O)[C@H](CC(C)C)NC(=O)[C@H](CCCNC(=N)N)NC(=O)[C@H](CCCCN)NC(=O)[C@H](Cc1ccc(O)cc1)NC(=O)[C@H](Cc1ccccc1)NC(=O)[C@H](CC(=O)O)NC(=O)[C@H](CO)NC(=O)[C@@H](NC(=O)CNC(=O)[C@H](Cc1ccc(O)cc1)NC(=O)[C@H](CCCCNC(=O)CSCCC(=O)NCCOCCOCCOCCOCCC(=O)N[C@H](Cc1ccccc1)C(=O)N[C@@H](CCC(N)=O)C(=O)N[C@@H](Cc1c[nH]c2ccccc12)C(=O)N[C@@H](C)C(=O)N[C@H](C(=O)NCC(=O)N[C@@H](Cc1c[nH]cn1)C(=O)N[C@@H](CC(C)C)[C@@H](O)CC(=O)N[C@@H](CC(C)C)C(N)=O)C(C)C)NC(=O)[C@H](CC(=O)O)NC(=O)[C@H](CC(C)C)NC(=O)[C@H](CCC(=O)O)NC(=O)[C@H](CCCNC(=N)N)NC(=O)[C@H](CC(N)=O)NC(=O)[C@H](C)NC(=O)[C@H](CC(C)C)NC(=O)[C@@H](NC(=O)[C@H](CCCCN)NC(=O)[C@H](C)NC(=O)[C@H](CCC(=O)O)NC(=O)[C@H](C)NC(=O)[C@H](CC(C)C)NC(=O)CN1CCN(CC(=O)O)CCN(CC(=O)O)CCN(CC(=O)O)CC1)C(C)C)C(C)C)[C@@H](C)CC)[C@@H](C)O)C(C)C)C(C)C)C(=O)N[C@@H](CC(C)C)C(=O)N[C@@H](C)C(=O)N[C@@H](C)C(=O)N[C@@H](CC(C)C)C(=O)N1CCC[C@H]1C(N)=O [[^111In]In-DOTA-ABD-RM26, metal not drawn]
tissue uptake at 72 h [3]: 10 ± 1 %ID/g | activity uptake in other organs at 24 h pi (PC-3 xenografts): activity uptake remained stable in the majority of the other studied organs | tissue uptake at 1 h ([4]; activity concentration in blood 1 h pi): 32 ± 4 %ID/g | tissue uptake at 1 h ([4]; bone uptake 1 h pi): 3.3 ± 0.4 %ID/g | tissue uptake at 24 h ([4]; bone uptake 24 h pi): 4.4 ± 0.5 %ID/g | tissue uptake at 1 h ([4]; kidney uptake 1 h pi): 35 ± 6 %ID/g | tissue uptake at 1 h ([4]; tumor activity uptake 1 h pi): 7 ± 2 %ID/g | tissue uptake at 24 h ([4]; tumor activity uptake 24 h pi): 11 ± 2 %ID/g | tissue uptake at 144 h ([4]; tumor activity uptake 144 h pi): 10 ± 1 %ID/g

CC[C@H](C)[C@H](NC(=O)[C@H](Cc1c[nH]cn1)NC(=O)[C@H](CC(C)C)NC(=O)[C@H](CCCCN)NC(=O)[C@H](CC(C)C)NC(=O)[C@H](C)NC(=O)[C@H](CCC(=O)O)NC(=O)[C@@H](NC(=O)CNC(=O)[C@H](CCC(=O)O)NC(=O)[C@@H](NC(=O)[C@@H](NC(=O)[C@H](CCCCN)NC(=O)[C@H](C)NC(=O)[C@H](CCCCN)NC(=O)[C@H](CC(N)=O)NC(=O)[C@@H](NC(=O)[C@H](CC(C)C)NC(=O)[C@H](CCCNC(=N)N)NC(=O)[C@H](CCCCN)NC(=O)[C@H](Cc1ccc(O)cc1)NC(=O)[C@H](Cc1ccccc1)NC(=O)[C@H](CC(=O)O)NC(=O)[C@H](CO)NC(=O)[C@@H](NC(=O)CNC(=O)[C@H](Cc1ccc(O)cc1)NC(=O)[C@H](CCCCNC(=O)CSCCC(=O)NCCOCCOCCOCCOCCC(=O)N[C@H](Cc1ccccc1)C(=O)N[C@@H](CCC(N)=O)C(=O)N[C@@H](Cc1c[nH]c2ccccc12)C(=O)N[C@@H](C)C(=O)N[C@H](C(=O)NCC(=O)N[C@@H](Cc1c[nH]cn1)C(=O)N[C@@H](CC(C)C)[C@@H](O)CC(=O)N[C@@H](CC(C)C)C(N)=O)C(C)C)NC(=O)[C@H](CC(=O)O)NC(=O)[C@H](CC(C)C)NC(=O)[C@H](CCC(=O)O)NC(=O)[C@H](CCCNC(=N)N)NC(=O)[C@H](CC(N)=O)NC(=O)[C@H](C)NC(=O)[C@H](CC(C)C)NC(=O)[C@@H](NC(=O)[C@H](CCCCN)NC(=O)[C@H](C)NC(=O)[C@H](CCC(=O)O)NC(=O)[C@H](C)NC(=O)[C@H](CC(C)C)NC(=O)CN1CCN(CC(=O)O)CCN(CC(=O)O)CCN(CC(=O)O)CC1)C(C)C)C(C)C)[C@@H](C)CC)[C@@H](C)O)C(C)C)C(C)C)C(=O)N[C@@H](CC(C)C)C(=O)N[C@@H](C)C(=O)N[C@@H](C)C(=O)N[C@@H](CC(C)C)C(=O)N1CCC[C@H]1C(N)=O [^natIn-DOTA-ABD-RM26, metal not drawn]
IC50 (GRPR [5]; 10-fold molar excess of HSA, read-out: half-maximal inhibitory concentration (IC50) in the presence of HSA): 49 ± 5 nM | IC50 (GRPR [5]; without HSA, read-out: half-maximal inhibitory concentration (IC50)): 30 ± 3 nM

Mercaptopropionyl-[PEG4]-D-Phe-Gln-Trp-Ala-Val-Gly-His-Sta-Leu-NH2 [RM26]
renal reabsorption (GRPR [6]): low renal reabsorption | pharmacokinetics (GRPR [7]): favorable pharmacokinetics

bombesin
secondary structure upon interaction with lipids and membranes [8]: form alpha-helical structures
